Converted amounts (≈) assume the structure as drawn. Where a SMILES comes first, the peptide text is derived from it. Bridges are numbered along the chain shown (N, C = ends). [ ]: non-standard residue; d: D form. S5 = C=CCCC[C@](C)(N)C(=O)O
Key:
Test in all cases: microbe, parasite or virus in culture
[1] = tested on: C. albicans SC5314; conditions: SC5314, 48 h
Procedure: (§1) The in vitro antifungal activities of the target peptides were evaluated according to protocols from the CLSI. The broth microdilution method was used to determine the minimum inhibitory concentration (MIC) of the target peptides in 96-well plates. Fluconazole was used as a reference drug.
(§2) Clinical isolates of C. albicans SC5314, 901, 904, C. tropicalis ATCC20026 and clinical isolate 895, C. glabrata ATCC1182 and clinical isolate 896, C. krusei ATCC2340, and C. parapsilosis ATCC22010 are from the collection library in the Drug Discovery and Development Center, Naval Medical University, Shanghai, China. C. auris clinical isolates are provided by Linqi Wang (Institute of Microbiology, Chinese Academy of Sciences) and Changbin Chen (Institut Pasteur of Shanghai, Chinese Academy of Sciences). All strains were cultured in YPD (1% yeast extract, 2% peptone, and 2% glucose) liquid medium overnight at 30 °C with shaking at 220 rpm.
(§3) The MICs of chemicals against all strains were determined by the micro broth dilution method according to the Clinical and Laboratory Standards Institute (Wayne PA, Reference Method for Broth Dilution Antifungal Susceptibility Testing of yeasts, approved Standard M27-A3, 3 rd ed; Clinical and Laboratory Standards Institute (CLSI): USA, 2008). The initial concentration of fungal suspension in RPMI 1640 medium was 3–5 × 10^3 colonies forming unit (CFU)/mL, which was added to 96-well plates. Peptides were prepared in dimethyl sulfoxide (DMSO) with an initial stored concentration of 6.4 mg/mL. Serial dilutions were made based on the CLSI M27 guide to obtaining the final concentrations ranging from 0.125 to 64 μg/mL for fluconazole and 0.25 to 128 μg/mL for peptides […]. The plates were incubated at 30 °C for 48 h. Optical density was measured at 630 nm, and background optical densities were subtracted from that of each well. The definition of MIC is the lowest concentration at which 80% of tested strains cannot grow.

[2] = tested on: C. tropicalis 895; conditions: for Minimum inhibitory concentration (MIC): 895, 48 h
Procedure: as §1, §2, §3

[3] = tested on: C. albicans 904; conditions: for Minimum inhibitory concentration (MIC): 904, 48 h
Procedure: as §1, §2, §3

[4] = tested on: C. tropicalis ATCC 20026; conditions: for Minimum inhibitory concentration (MIC): ATCC 20026, 48 h
Procedure: as §1, §2, §3

[5] = tested on: C. krusei ATCC 2340; conditions: for Minimum inhibitory concentration (MIC): ATCC 2340, 48 h
Procedure: as §1, §2, §3

[6] = tested on: C. auris 918; conditions: for Minimum inhibitory concentration (MIC): 918, 48 h
Procedure: as §1, §2, §3

[7] = tested on: C. glabrata ATCC 1182; conditions: for Minimum inhibitory concentration (MIC): ATCC 1182, 48 h
Procedure: as §1, §2, §3

[8] = tested on: C. auris 919; conditions: for Minimum inhibitory concentration (MIC): 919, 48 h
Procedure: as §1, §2, §3

[9] = tested on: C. parapsilosis ATCC 22010; conditions: for Minimum inhibitory concentration (MIC): ATCC 22010, 48 h
Procedure: as §1, §2, §3

[10] = tested on: C. glabrata 896; conditions: for Minimum inhibitory concentration (MIC): 896, 48 h
Procedure: as §1, §2, §3

[11] = tested on: C. albicans 901; conditions: for Minimum inhibitory concentration (MIC): 901, 48 h
Procedure: as §1, §2, §3

[12] = Candidozyma auris, 48 h, read-out: Minimum inhibitory concentration (MIC)

Compound	Minimum inhibitory concentration (MIC) [1]	Minimum inhibitory concentration (MIC) [2]	Minimum inhibitory concentration (MIC) [3]	Minimum inhibitory concentration (MIC) [4]	Minimum inhibitory concentration (MIC) [5]	Minimum inhibitory concentration (MIC) [6]	Minimum inhibitory concentration (MIC) [7]	Minimum inhibitory concentration (MIC) [8]	Minimum inhibitory concentration (MIC) [9]	Minimum inhibitory concentration (MIC) [10]	Minimum inhibitory concentration (MIC) [11]	also measured
CC[C@H](C)[C@@H]1NC(=O)[C@H]([C@@H](C)CC)NC(=O)[C@@](C)(NC(=O)[C@H](Cc2ccccc2)NC(=O)[C@H](CC(C)C)NC(=O)CNC(C)=O)CCCC=CCCC[C@@](C)(C(=O)N[C@H](C(=O)N[C@@H](C)C(=O)N[C@@H](CCC(=O)O)C(=O)N[C@@H](CO)C(=O)N[C@@H](Cc2ccccc2)C(N)=O)[C@@H](C)CC)NC(=O)[C@H](CCCCN)NC1=O [Sau-4] (Ac-GLF[S5]IIK[S5]IAESF-NH2; staple 4-8)	>64 µg/mL	>128 µg/mL	>128 µg/mL	>128 µg/mL	>128 µg/mL	>128 µg/mL	>128 µg/mL	>128 µg/mL	>128 µg/mL	>128 µg/mL	>128 µg/mL	–
CC[C@H](C)[C@H](NC(=O)[C@H](CCCCN)NC(=O)[C@H](CCCCN)NC(=O)[C@@H](NC(=O)[C@]1(C)CCCC=CCCC[C@](C)(NC(C)=O)C(=O)N[C@@H](CC(C)C)C(=O)N[C@@H](Cc2ccccc2)C(=O)N[C@@H](CC(=O)O)C(=O)N1)[C@@H](C)CC)C(=O)N[C@@H](C)C(=O)N[C@@H](CCC(=O)O)C(=O)N[C@@H](CO)C(=O)N[C@@H](Cc1ccccc1)C(N)=O [Sau-1] (Ac-[S5]LFD[S5]IKKIAESF-NH2; staple 1-5)	>64 µg/mL	>128 µg/mL	>128 µg/mL	>128 µg/mL	>128 µg/mL	>128 µg/mL	>128 µg/mL	>128 µg/mL	128 µg/mL (≈ 79.9 µM)	>128 µg/mL	32 µg/mL (≈ 20 µM)	–
CC[C@H](C)[C@H](NC(=O)[C@H](CC(=O)O)NC(=O)[C@H](Cc1ccccc1)NC(=O)[C@H](CC(C)C)NC(=O)CNC(C)=O)C(=O)N[C@H](C(=O)N[C@@H](CCCCN)C(=O)N[C@@H](CCCCN)C(=O)N[C@@]1(C)CCCC=CCCC[C@@](C)(C(N)=O)NC(=O)[C@H](CO)NC(=O)[C@H](CCC(=O)O)NC(=O)[C@H](C)NC1=O)[C@@H](C)CC [Sau-9] (Ac-GLFDIIKK[S5]AES[S5]-NH2; staple 9-13)	>64 µg/mL	32 µg/mL (≈ 21.2 µM)	>128 µg/mL	>128 µg/mL	>128 µg/mL	>128 µg/mL	>128 µg/mL	>128 µg/mL	>128 µg/mL	>128 µg/mL	>128 µg/mL	–
CC[C@H](C)[C@H](NC(=O)[C@H](CCCCN)NC(=O)[C@H](CCCCN)NC(=O)[C@]1(C)CCCC=CCCC[C@](C)(NC(=O)CNC(C)=O)C(=O)N[C@@H](Cc2ccccc2)C(=O)N[C@@H](CC(=O)O)C(=O)N[C@@H]([C@@H](C)CC)C(=O)N1)C(=O)N[C@@H](C)C(=O)N[C@@H](CCC(=O)O)C(=O)N[C@@H](CO)C(=O)N[C@@H](Cc1ccccc1)C(N)=O [Sau-2] (Ac-G[S5]FDI[S5]KKIAESF-NH2; staple 2-6)	>64 µg/mL	16 µg/mL (≈ 10.4 µM)	>128 µg/mL	>128 µg/mL	>128 µg/mL	>128 µg/mL	>128 µg/mL	>128 µg/mL	>128 µg/mL	128 µg/mL (≈ 82.8 µM)	>128 µg/mL	–
CC[C@H](C)[C@H](NC(=O)[C@H](CCCCN)NC(=O)[C@]1(C)CCCC=CCCC[C@](C)(NC(=O)[C@H](CC(C)C)NC(=O)CNC(C)=O)C(=O)N[C@@H](CC(=O)O)C(=O)N[C@@H]([C@@H](C)CC)C(=O)N[C@@H]([C@@H](C)CC)C(=O)N1)C(=O)N[C@@H](C)C(=O)N[C@@H](CCC(=O)O)C(=O)N[C@@H](CO)C(=O)N[C@@H](Cc1ccccc1)C(N)=O [Sau-3] (Ac-GL[S5]DII[S5]KIAESF-NH2; staple 3-7)	>64 µg/mL	>128 µg/mL	>128 µg/mL	>128 µg/mL	>128 µg/mL	>128 µg/mL	>128 µg/mL	>128 µg/mL	>128 µg/mL	>128 µg/mL	>128 µg/mL	–
CC[C@H](C)[C@H](NC(=O)[C@H](CC(=O)O)NC(=O)[C@H](Cc1ccccc1)NC(=O)[C@H](CC(C)C)NC(=O)CNC(C)=O)C(=O)N[C@@]1(C)CCCC=CCCC[C@@](C)(C(=O)N[C@@H](CCC(=O)O)C(=O)N[C@@H](CO)C(=O)N[C@@H](Cc2ccccc2)C(N)=O)NC(=O)[C@H]([C@@H](C)CC)NC(=O)[C@H](CCCCN)NC(=O)[C@H](CCCCN)NC1=O [Sau-6] (Ac-GLFDI[S5]KKI[S5]ESF-NH2; staple 6-10)	>64 µg/mL	>128 µg/mL	>128 µg/mL	>128 µg/mL	>128 µg/mL	>128 µg/mL	>128 µg/mL	>128 µg/mL	>128 µg/mL	>128 µg/mL	>128 µg/mL	–
CC[C@H](C)[C@@H]1NC(=O)[C@H](CCCCN)NC(=O)[C@@](C)(NC(=O)[C@@H](NC(=O)[C@@H](NC(=O)[C@H](CC(=O)O)NC(=O)[C@H](Cc2ccccc2)NC(=O)[C@H](CC(C)C)NC(=O)CNC(C)=O)[C@@H](C)CC)[C@@H](C)CC)CCCC=CCCC[C@@](C)(C(=O)N[C@@H](CO)C(=O)N[C@@H](Cc2ccccc2)C(N)=O)NC(=O)[C@H](C)NC1=O [Sau-7] (Ac-GLFDII[S5]KIA[S5]SF-NH2; staple 7-11)	>64 µg/mL	>128 µg/mL	>128 µg/mL	>128 µg/mL	>128 µg/mL	>128 µg/mL	>128 µg/mL	>128 µg/mL	>128 µg/mL	>128 µg/mL	>128 µg/mL	–
OC(Cn1cncn1)(Cn1cncn1)c1ccc(F)cc1F [Fluconazole, reference compound]	–	–	–	–	–	–	–	–	–	–	–	MIC ([1]; Candida albicans, read-out: Minimum inhibitory concentration (MIC)): 0.5 µg/mL (≈ 1.63 µM); MIC ([2]; Candida tropicalis, 895, 48 h, read-out: Minimum inhibitory concentration (MIC)): > 128 µg/mL; MIC ([3]; Candida albicans, 904, 48 h, read-out: Minimum inhibitory concentration (MIC)): > 64 µg/mL; MIC ([4]; Candida tropicalis, ATCC20026, 48 h, read-out: Minimum inhibitory concentration (MIC)): 1 µg/mL (≈ 3.27 µM); MIC ([5]; Pichia kudriavzevii, ATCC2340, 48 h, read-out: Minimum inhibitory concentration (MIC)): 64 µg/mL (≈ 209 µM); MIC [6, 12]: > 128 µg/mL; MIC ([7]; Nakaseomyces glabratus, ATCC1182, 48 h, read-out: Minimum inhibitory concentration (MIC)): 2 µg/mL (≈ 6.53 µM); MIC [8, 12]: > 128 µg/mL; MIC ([9]; Lodderomyces parapsilosis, ATCC22010, 48 h, read-out: Minimum inhibitory concentration (MIC)): 1 µg/mL (≈ 3.27 µM); MIC ([10]; Nakaseomyces glabratus, 48 h, read-out: Minimum inhibitory concentration (MIC)): > 128 µg/mL; MIC ([11]; Candida albicans, 901, 48 h, read-out: Minimum inhibitory concentration (MIC)): > 64 µg/mL
